Data from PubChem BioAssay AID1745844 (Carcinogenic Potency Database (CPDB), 2022).
Active and inactive are the calls of the source. The rule behind the calls is not given here.

System: rodent lifetime carcinogenesis bioassay, tumor incidence TD50
Assay: carcinogenic potency in animals, long-term in vivo studies, CPDB compilation (AID 1745844)

In the case of CCOC(N)=O, the TD50 (hamster, strain Syrian Golden, females, in drinking water, site: adrenal gland, lesion: cortical carcinoma, dosed 90 weeks, study length 90 weeks) is reported as 349 mg/kg/day, the TD50 (hamster, strain Syrian Golden, females, in drinking water, site: adrenal gland, lesion: several types, types named in the paper, dosed 90 weeks, study length 90 weeks) is reported as 318 mg/kg/day and the TD50 (hamster, strain Syrian Golden, females, in drinking water, site: cecum, lesion: adenomatous polyp, dosed 90 weeks, study length 90 weeks) is reported as 294 mg/kg/day. For the same compound, the TD50 (hamster, strain Syrian Golden, females, in drinking water, site: dermis, lesion: melanocytoma, dosed 90 weeks, study length 90 weeks) was 74.4 mg/kg/day, the TD50 (hamster, strain Syrian Golden, females, in drinking water, site: forestomach, lesion: carcinoma, dosed 90 weeks, study length 90 weeks) was 374 mg/kg/day and the TD50 (hamster, strain Syrian Golden, females, in drinking water, site: forestomach, lesion: papilloma, dosed 55 weeks, study length 55 weeks) was 102 mg/kg/day. For the same compound, the TD50 (hamster, strain Syrian Golden, females, in drinking water, site: forestomach, lesion: papilloma, dosed 90 weeks, study length 90 weeks) was 44.5 mg/kg/day, the TD50 (hamster, strain Syrian Golden, females, in drinking water, site: gall bladder, lesion: papilloma, dosed 90 weeks, study length 90 weeks) was 682 mg/kg/day and the TD50 (hamster, strain Syrian Golden, females, in drinking water, site: lung, lesion: adenoma, dosed 90 weeks, study length 90 weeks) was 1360 mg/kg/day. For the same compound, the TD50 (hamster, strain Syrian Golden, females, in drinking water, site: ovary, lesion: carcinoma, dosed 90 weeks, study length 90 weeks) was 682 mg/kg/day, the TD50 (hamster, strain Syrian Golden, females, in drinking water, site: skin, lesion: melanotic tumor, dosed 55 weeks, study length 55 weeks) was 496 mg/kg/day and the TD50 (hamster, strain Syrian Golden, females, in drinking water, site: thyroid gland, lesion: several types, types named in the paper, dosed 90 weeks, study length 90 weeks) was 538 mg/kg/day. The TD50 (hamster, strain Syrian Golden, females, in drinking water, site: vagina, lesion: carcinoma, dosed 90 weeks, study length 90 weeks) was 314 mg/kg/day, the TD50 (hamster, strain Syrian Golden, males, in drinking water, site: adrenal gland, lesion: cortical adenoma, dosed 103 weeks, study length 103 weeks) was 564 mg/kg/day and the TD50 (hamster, strain Syrian Golden, males, in drinking water, site: cecum, lesion: adenomatous polyp, dosed 103 weeks, study length 103 weeks) was 765 mg/kg/day. The TD50 (hamster, strain Syrian Golden, males, in drinking water, site: dermis, lesion: melanocytoma, dosed 103 weeks, study length 103 weeks) was 109 mg/kg/day, the TD50 (hamster, strain Syrian Golden, males, in drinking water, site: forestomach, lesion: carcinoma, dosed 103 weeks, study length 103 weeks) was 135 mg/kg/day and the TD50 (hamster, strain Syrian Golden, males, in drinking water, site: forestomach, lesion: papilloma, dosed 76 weeks, study length 76 weeks) was 95.8 mg/kg/day. It also gave a TD50 (hamster, strain Syrian Golden, males, in drinking water, site: forestomach, lesion: papilloma, dosed 103 weeks, study length 103 weeks) of 64.2 mg/kg/day, a TD50 (hamster, strain Syrian Golden, males, in drinking water, site: liver, lesion: several types, types named in the paper, dosed 103 weeks, study length 103 weeks) of 1280 mg/kg/day and a TD50 (hamster, strain Syrian Golden, males, in drinking water, site: lung, lesion: adenoma, dosed 103 weeks, study length 103 weeks) of 927 mg/kg/day. For the same compound, the TD50 (hamster, strain Syrian Golden, males, in drinking water, site: skin, lesion: melanotic tumor, dosed 76 weeks, study length 76 weeks) was 74.2 mg/kg/day, the TD50 (monkey, strain Cynomolgus [Macaca fascicularis], both sexes, in feed, site: any site (literature study), lesion: benign tumor, dosed 258 weeks, study length 1208 weeks) was 128 mg/kg/day and the TD50 (monkey, strain Cynomolgus [Macaca fascicularis], both sexes, in feed, site: any site (literature study), lesion: malignant tumor, dosed 258 weeks, study length 1208 weeks) was 21.5 mg/kg/day. It also gave a TD50 (monkey, strain Cynomolgus [Macaca fascicularis], both sexes, in feed, site: any site (literature study), lesion: several types, types named in the paper, dosed 258 weeks, study length 1208 weeks) of 25.5 mg/kg/day, a TD50 (monkey, strain Cynomolgus [Macaca fascicularis], both sexes, in feed, site: liver, lesion: hemangiosarcoma, dosed 258 weeks, study length 1208 weeks) of 95 mg/kg/day and a TD50 (monkey, strain Cynomolgus [Macaca fascicularis], both sexes, in feed, site: liver, lesion: hepatocellular adenoma, dosed 258 weeks, study length 1208 weeks) of 31.7 mg/kg/day. The TD50 (monkey, strain Cynomolgus [Macaca fascicularis], both sexes, in feed, site: lung, lesion: bronchogenic carcinoma, dosed 258 weeks, study length 1208 weeks) was 31.7 mg/kg/day, the TD50 (monkey, strain Cynomolgus [Macaca fascicularis], both sexes, in feed, site: pancreas, lesion: adenocarcinoma, dosed 258 weeks, study length 1208 weeks) was 52.8 mg/kg/day and the TD50 (monkey, strain Cynomolgus [Macaca fascicularis], both sexes, in feed, site: several sites, pooled by Berkeley, lesion: several types, pooled by Berkeley, dosed 258 weeks, study length 1208 weeks) was 16.4 mg/kg/day. It also gave a TD50 (monkey, strain Rhesus [Macaca mulatta], both sexes, in feed, site: adrenal gland, lesion: pheochromocytoma, dosed 258 weeks, study length 1281 weeks) of 117 mg/kg/day, a TD50 (monkey, strain Rhesus [Macaca mulatta], both sexes, in feed, site: any site (literature study), lesion: benign tumor, dosed 258 weeks, study length 1281 weeks) of 75.9 mg/kg/day and a TD50 (monkey, strain Rhesus [Macaca mulatta], both sexes, in feed, site: any site (literature study), lesion: malignant tumor, dosed 258 weeks, study length 1281 weeks) of 52.9 mg/kg/day. The TD50 (monkey, strain Rhesus [Macaca mulatta], both sexes, in feed, site: any site (literature study), lesion: several types, types named in the paper, dosed 258 weeks, study length 1281 weeks) was 26.3 mg/kg/day, the TD50 (monkey, strain Rhesus [Macaca mulatta], both sexes, in feed, site: cheek pouch, lesion: squamous-cell papilloma, dosed 258 weeks, study length 1281 weeks) was 75.5 mg/kg/day and the TD50 (monkey, strain Rhesus [Macaca mulatta], both sexes, in feed, site: jejunum, lesion: adenocarcinoma, dosed 258 weeks, study length 1281 weeks) was 65.2 mg/kg/day. For the same compound, the TD50 (monkey, strain Rhesus [Macaca mulatta], both sexes, in feed, site: liver, lesion: hemangiosarcoma, dosed 258 weeks, study length 1281 weeks) was 143 mg/kg/day, the TD50 (monkey, strain Rhesus [Macaca mulatta], both sexes, in feed, site: liver, lesion: hepatocellular carcinoma, dosed 258 weeks, study length 1281 weeks) was 143 mg/kg/day and the TD50 (monkey, strain Rhesus [Macaca mulatta], both sexes, in feed, site: several sites, pooled by Berkeley, lesion: several types, pooled by Berkeley, dosed 258 weeks, study length 1281 weeks) was 44.8 mg/kg/day. The TD50 (mouse, strain B6AKF1, females, oral dosing, site: Harderian gland, lesion: adenoma, dosed 73 weeks, study length 73 weeks) was 59.7 mg/kg/day, the TD50 (mouse, strain B6AKF1, females, oral dosing, site: all sites, lesion: angioma, dosed 73 weeks, study length 73 weeks) was 31.7 mg/kg/day and the TD50 (mouse, strain B6AKF1, females, oral dosing, site: any site (literature study), lesion: several types, types named in the paper, dosed 73 weeks, study length 73 weeks) was 9.73 mg/kg/day. It also gave a TD50 (mouse, strain B6AKF1, females, oral dosing, site: liver, lesion: hepatoma, dosed 73 weeks, study length 73 weeks) of 89.9 mg/kg/day, a TD50 (mouse, strain B6AKF1, females, oral dosing, site: lung, lesion: adenoma, dosed 73 weeks, study length 73 weeks) of 29.3 mg/kg/day and a TD50 (mouse, strain B6AKF1, females, oral dosing, site: lung, lesion: carcinoma, dosed 73 weeks, study length 73 weeks) of 89.9 mg/kg/day. It also gave a TD50 (mouse, strain B6AKF1, females, oral dosing, site: lung, lesion: several types, types named in the paper, dosed 73 weeks, study length 73 weeks) of 12.5 mg/kg/day, a TD50 (mouse, strain B6AKF1, males, oral dosing, site: Harderian gland, lesion: adenoma, dosed 72 weeks, study length 72 weeks) of 35.8 mg/kg/day and a TD50 (mouse, strain B6AKF1, males, oral dosing, site: all sites, lesion: reticulum-cell sarcoma, dosed 72 weeks, study length 72 weeks) of 77.9 mg/kg/day. The TD50 (mouse, strain B6AKF1, males, oral dosing, site: any site (literature study), lesion: several types, types named in the paper, dosed 72 weeks, study length 72 weeks) was 11.2 mg/kg/day, the TD50 (mouse, strain B6AKF1, males, oral dosing, site: liver, lesion: hepatoma, dosed 72 weeks, study length 72 weeks) was 39 mg/kg/day and the TD50 (mouse, strain B6AKF1, males, oral dosing, site: liver, lesion: several types, types named in the paper, dosed 72 weeks, study length 72 weeks) was 26 mg/kg/day. For the same compound, the TD50 (mouse, strain B6AKF1, males, oral dosing, site: lung, lesion: adenoma, dosed 72 weeks, study length 72 weeks) was 27.8 mg/kg/day, the TD50 (mouse, strain B6AKF1, males, oral dosing, site: lung, lesion: several types, types named in the paper, dosed 72 weeks, study length 72 weeks) was 24.2 mg/kg/day and the TD50 (mouse, strain B6C3F1, females, oral dosing, site: any site (literature study), lesion: several types, types named in the paper, dosed 68 weeks, study length 68 weeks) was 13.7 mg/kg/day. The TD50 (mouse, strain B6C3F1, females, oral dosing, site: liver, lesion: hepatoma, dosed 68 weeks, study length 68 weeks) was 55.9 mg/kg/day, the TD50 (mouse, strain B6C3F1, females, oral dosing, site: liver, lesion: several types, types named in the paper, dosed 68 weeks, study length 68 weeks) was 32.4 mg/kg/day and the TD50 (mouse, strain B6C3F1, females, oral dosing, site: lung, lesion: adenoma, dosed 68 weeks, study length 68 weeks) was 97.4 mg/kg/day. For the same compound, the TD50 (mouse, strain B6C3F1, females, oral dosing, site: lung, lesion: several types, types named in the paper, dosed 68 weeks, study length 68 weeks) was 79 mg/kg/day, the TD50 (mouse, strain B6C3F1, males, in drinking water, site: heart, lesion: hemangiosarcoma, dosed 65 weeks, study length 70 weeks) was 417 mg/kg/day and the TD50 (mouse, strain B6C3F1, males, in drinking water, site: liver, lesion: hemangioma, dosed 65 weeks, study length 70 weeks) was 63.3 mg/kg/day. The TD50 (mouse, strain B6C3F1, males, in drinking water, site: liver, lesion: hemangiosarcoma, dosed 65 weeks, study length 70 weeks) was 122 mg/kg/day, the TD50 (mouse, strain B6C3F1, males, in drinking water, site: liver, lesion: hepatocellular adenoma, dosed 65 weeks, study length 70 weeks) was 38.2 mg/kg/day and the TD50 (mouse, strain B6C3F1, males, in drinking water, site: lung, lesion: alveolar/bronchiolar adenoma, dosed 65 weeks, study length 70 weeks) was 5.91 mg/kg/day. For the same compound, the TD50 (mouse, strain B6C3F1, males, in drinking water, site: lung, lesion: alveolar/bronchiolar carcinoma, dosed 65 weeks, study length 70 weeks) was 242 mg/kg/day, the TD50 (mouse, strain B6C3F1, males, in drinking water, site: lung, lesion: several types, types named in the paper, dosed 65 weeks, study length 70 weeks) was 5.91 mg/kg/day and the TD50 (mouse, strain B6C3F1, males, oral dosing, site: any site (literature study), lesion: several types, types named in the paper, dosed 70 weeks, study length 70 weeks) was 22.4 mg/kg/day. The TD50 (mouse, strain B6C3F1, males, oral dosing, site: liver, lesion: hepatoma, dosed 70 weeks, study length 70 weeks) was 81.7 mg/kg/day, the TD50 (mouse, strain B6C3F1, males, oral dosing, site: liver, lesion: several types, types named in the paper, dosed 70 weeks, study length 70 weeks) was 46 mg/kg/day and the TD50 (mouse, strain B6C3F1, males, oral dosing, site: lung, lesion: adenoma, dosed 70 weeks, study length 70 weeks) was 81.7 mg/kg/day. For the same compound, the TD50 (mouse, strain B6C3F1, males, oral dosing, site: lung, lesion: several types, types named in the paper, dosed 70 weeks, study length 70 weeks) was 65.9 mg/kg/day, the TD50 (mouse, strain CF-1, females, in drinking water, site: any site (literature study), lesion: several types, types named in the paper, dosed 133 weeks, study length 133 weeks) was 23.3 mg/kg/day and the carcinogen call (mouse, strain CF-1, females, in drinking water, site: liver, lesion: hepatoma, dosed 133 weeks, study length 133 weeks) was “negative (inactive)”. The TD50 (mouse, strain CF-1, females, in drinking water, site: lung, lesion: one or several types, types not named, dosed 133 weeks, study length 133 weeks) was 23.8 mg/kg/day, the TD50 (mouse, strain CF-1, males, in drinking water, site: any site (literature study), lesion: several types, types named in the paper, dosed 125 weeks, study length 125 weeks) was 12.1 mg/kg/day and the carcinogen call (mouse, strain CF-1, males, in drinking water, site: liver, lesion: hepatoma, dosed 125 weeks, study length 125 weeks) was “negative (inactive)”. The TD50 (mouse, strain CF-1, males, in drinking water, site: lung, lesion: one or several types, types not named, dosed 125 weeks, study length 125 weeks) was 13.2 mg/kg/day, the TD50 (mouse, strain NMRI, both sexes, in drinking water, site: any site (literature study), lesion: benign tumor, dosed 101 weeks, study length 104 weeks) was 0.434 mg/kg/day and the TD50 (mouse, strain NMRI, both sexes, in drinking water, site: any site (literature study), lesion: malignant tumor, dosed 101 weeks, study length 104 weeks) was 14.7 mg/kg/day. It also gave a TD50 (mouse, strain Swiss, both sexes, in feed, site: lung, lesion: adenocarcinoma, dosed 116 weeks, study length 116 weeks) of 5060 mg/kg/day, a TD50 (mouse, strain Swiss, both sexes, in feed, site: lung, lesion: adenoma, dosed 116 weeks, study length 116 weeks) of 36.1 mg/kg/day and a TD50 (rat, strain Sprague-Dawley, both sexes, in drinking water, site: any site (literature study), lesion: benign tumor, dosed 97 weeks, study length 104 weeks) of 91.2 mg/kg/day. The TD50 (rat, strain Sprague-Dawley, both sexes, in drinking water, site: any site (literature study), lesion: malignant tumor, dosed 97 weeks, study length 104 weeks) was 41.3 mg/kg/day.
